Results as given in PubChem BioAssay AID330 (DTP/NCI, 2004).
Several values for one entry are separate records, joined by “and”; a condition that tells them apart may be missing. Equal entries are not always repeated. Toxic doses and inconclusive results are not listed.

Tested on: P388 leukemia ip, CD2F1 mice, survival T/C
Assay: NCI In Vivo Anticancer Drug Screen. Data for tumor model P388 Leukemia (intraperitoneal) in CD2F1 (CDF1) mice
Conditions: endpoint: median survival time, higher = longer survival
How it was run: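 Mice carrying the transplanted tumor received test compound or vehicle. Survival was recorded in each group, and the value is the treated-group measurement divided by that of the vehicle-treated control group.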

[1] = dose: 50.0 mg/kg/injection, schedule: Q01DX005 (ip), vehicle: saline with Tween-80
[2] = dose: 100.0 mg/kg/injection, schedule: Q01DX005 (ip), vehicle: saline with Tween-80
[3] = dose: 60.0 mg/kg/injection, schedule: Q01DX005 (ip), vehicle: saline with Tween-80
[4] = dose: 120.0 mg/kg/injection, schedule: Q01DX005 (ip), vehicle: saline with Tween-80
[5] = dose: 240.0 mg/kg/injection, schedule: Q01DX005 (ip), vehicle: saline with Tween-80
[6] = dose: 50.0 mg/kg/injection, schedule: Q01DX009 (ip), vehicle: saline with Tween-80
[7] = dose: 100.0 mg/kg/injection, schedule: Q01DX009 (ip), vehicle: saline with Tween-80
[8] = dose: 200.0 mg/kg/injection, schedule: Q01DX009 (ip), vehicle: saline with Tween-80
[9] = dose: 60.0 mg/kg/injection, schedule: Q01DX005 (ip), vehicle: saline
[10] = dose: 120.0 mg/kg/injection, schedule: Q01DX005 (ip), vehicle: saline
[11] = dose: 240.0 mg/kg/injection, schedule: Q01DX005 (ip), vehicle: saline
[12] = dose: 100.0 mg/kg/injection, schedule: Q04DX003 (ip), vehicle: saline with Tween-80
[13] = dose: 400.0 mg/kg/injection, schedule: Q04DX003 (ip), vehicle: saline with Tween-80
[14] = dose: 200.0 mg/kg/injection, schedule: Q01DX005 (ip), vehicle: saline with Tween-80
[15] = dose: 50.0 mg/kg/injection, schedule: Q01DX005 (ip), vehicle: Klucel (hydroxypropylcellulose) (HPC)
[16] = dose: 100.0 mg/kg/injection, schedule: Q01DX005 (ip), vehicle: Klucel (hydroxypropylcellulose) (HPC)
[17] = dose: 100.0 mg/kg/injection, schedule: Q01DX001 (ip), vehicle: saline with Tween-80
[18] = dose: 200.0 mg/kg/injection, schedule: Q01DX001 (ip), vehicle: saline with Tween-80
[19] = dose: 400.0 mg/kg/injection, schedule: Q01DX001 (ip), vehicle: saline with Tween-80
[20] = dose: 60.0 mg/kg/injection, schedule: Q01DX005 (ip), vehicle: Klucel (hydroxypropylcellulose) (HPC)
[21] = dose: 120.0 mg/kg/injection, schedule: Q01DX005 (ip), vehicle: Klucel (hydroxypropylcellulose) (HPC)
[22] = dose: 240.0 mg/kg/injection, schedule: Q01DX005 (ip), vehicle: Klucel (hydroxypropylcellulose) (HPC)

CC(C)n1c(Cl)c(C(=O)O)c2ccccc21
T/C (dose: 100.0 mg/kg/injection, schedule: Q04DX002 (ip), vehicle: saline with Tween-80): 100 % of control | T/C (dose: 200.0 mg/kg/injection, schedule: Q04DX002 (ip), vehicle: saline with Tween-80): 98 % of control | T/C (dose: 400.0 mg/kg/injection, schedule: Q04DX002 (ip), vehicle: saline with Tween-80): 100 % of control

Nc1ccccc1N=Cc1c(O)c2ccccc2oc1=O
T/C [1]: 93 % of control | T/C [2]: 98 % of control

Nc1nnc(-c2ccc(-c3nnc(N)o3)cc2)o1
T/C [3]: 98 % of control | T/C [4]: 100 % of control | T/C [5]: 100 % of control

CC(=O)OC1C2C=CC1C=C2 (configuration not stated)
T/C [6]: 104 % of control | T/C [7]: 93 % of control | T/C [8]: 100 % of control

OCC12OCC(C=CC1O)O2 (configuration not stated)
T/C [9]: 99 % of control | T/C [10]: 91 % of control | T/C [11]: 98 % of control

O=C1NCCCCC1(Cl)Cl
T/C (dose: 12.5 mg/kg/injection, schedule: Q01DX005 (ip), vehicle: saline with Tween-80): 99 % of control | T/C (dose: 25.0 mg/kg/injection, schedule: Q01DX005 (ip), vehicle: saline with Tween-80): 101 % of control | T/C [1]: 99 % of control and 103 % of control

Nc1nc(Br)c2[nH]cnc2n1
T/C [7]: 110 % of control | T/C [12]: 118 % of control | T/C [8]: 120 % of control | T/C (dose: 200.0 mg/kg/injection, schedule: Q04DX003 (ip), vehicle: saline with Tween-80): 113 % of control | T/C (dose: 400.0 mg/kg/injection, schedule: Q01DX009 (ip), vehicle: saline with Tween-80): 90 % of control | T/C [13]: 109 % of control

CCCCCCCCCCN(CCCCCCCCCC)C(=O)C(C)OC(C)=O (configuration not stated)
T/C [1]: 98 % of control | T/C [2]: 101 % of control | T/C [14]: 104 % of control

COc1ccc2c(c1)OCCN(C)OC2c1ccccc1 (configuration not stated)
T/C [1]: 96 % of control | T/C [2]: 95 % of control

O=C(O)CNC(=O)NC(Cc1ccccc1)C(=O)O (configuration not stated)
T/C [1]: 105 % of control | T/C [2]: 105 % of control | T/C [14]: 93 % of control

O=CCSC(=S)NNc1ccccc1
T/C (dose: 25.0 mg/kg/injection, schedule: Q01DX009 (ip), vehicle: saline): 103 % of control | T/C (dose: 50.0 mg/kg/injection, schedule: Q01DX009 (ip), vehicle: saline): 90 % of control | T/C (dose: 100.0 mg/kg/injection, schedule: Q01DX009 (ip), vehicle: saline): 105 % of control | T/C (dose: 200.0 mg/kg/injection, schedule: Q01DX009 (ip), vehicle: saline): 96 % of control

C[PH+](C)C.C[PH+](C)C.[Au]
T/C (dose: 1.25 mg/kg/injection, schedule: Q01DX009 (ip), vehicle: saline): 112 % of control | T/C (dose: 2.5 mg/kg/injection, schedule: Q01DX009 (ip), vehicle: saline): 114 % of control | T/C (dose: 5.0 mg/kg/injection, schedule: Q01DX009 (ip), vehicle: saline): 116 % of control

O=C1c2ccccc2C(=O)c2c1c([N+](=O)[O-])c1c(c2[N+](=O)[O-])OCO1
T/C [3]: 86 % of control | T/C [4]: 86 % of control | T/C [5]: 96 % of control

CC1(O)Cc2ccc3c(c2C(=O)C1O)C(=O)c1cccc(O)c1C3=O (configuration not stated)
T/C (dose: 3.12 mg/kg/injection, schedule: Q01DX005 (ip), vehicle: distilled water + Tween-80 + alcohol): 98 % of control | T/C (dose: 6.25 mg/kg/injection, schedule: Q01DX005 (ip), vehicle: distilled water + Tween-80 + alcohol): 100 % of control | T/C (dose: 12.5 mg/kg/injection, schedule: Q01DX005 (ip), vehicle: distilled water + Tween-80 + alcohol): 100 % of control | T/C (dose: 25.0 mg/kg/injection, schedule: Q01DX005 (ip), vehicle: distilled water + Tween-80 + alcohol): 100 % of control

C/C=C(\C)C(=O)N/N=C\C=C\c1ccccc1
T/C (dose: 25.0 mg/kg/injection, schedule: Q01DX005 (ip), vehicle: Klucel (hydroxypropylcellulose) (HPC)): 89 % of control | T/C [15]: 92 % of control | T/C [16]: 89 % of control

Nc1nc(SCc2cccc(Br)c2)c2ncn(C3OC(CO)C(O)C3O)c2n1 (configuration not stated)
T/C [6]: 109 % of control | T/C (dose: 66.0 mg/kg/injection, schedule: Q01DX009 (ip), vehicle: saline with Tween-80): 100 % of control | T/C [8]: 104 % of control

[CH3][Sn]([CH3])([Cl])[S]CCN
T/C (dose: 0.78 mg/kg/injection, schedule: Q01DX009 (ip), vehicle: saline): 99 % of control | T/C (dose: 1.56 mg/kg/injection, schedule: Q01DX009 (ip), vehicle: saline): 105 % of control | T/C (dose: 3.12 mg/kg/injection, schedule: Q01DX009 (ip), vehicle: saline): 123 % of control | T/C (dose: 6.25 mg/kg/injection, schedule: Q01DX009 (ip), vehicle: saline): 120 % of control

CCOC1CC(C)(O)Cc2cc3c(c(O)c21)C(=O)c1c(O)cc2c(c1C3=O)OC1OC2(C)C(O)C(N(C)C)C1O (configuration not stated)
T/C (dose: 2.5 mg/kg/injection, schedule: Q01DX009 (ip), vehicle: other): 150 % of control and 156 % of control | T/C (dose: 3.25 mg/kg/injection, schedule: Q01DX009 (ip), vehicle: other): 151 % of control | T/C (dose: 5.0 mg/kg/injection, schedule: Q01DX009 (ip), vehicle: other): 166 % of control and 207 % of control | T/C (dose: 6.5 mg/kg/injection, schedule: Q01DX009 (ip), vehicle: other): 163 % of control | T/C (dose: 10.0 mg/kg/injection, schedule: Q01DX009 (ip), vehicle: other): 178 % of control and 205 % of control | T/C (dose: 13.0 mg/kg/injection, schedule: Q01DX009 (ip), vehicle: other): 93 % of control | T/C (dose: 20.0 mg/kg/injection, schedule: Q01DX009 (ip), vehicle: other): 87 % of control

COc1ccc(N/C(=C/C#N)c2ccccc2)cc1
T/C [17]: 100 % of control | T/C [18]: 99 % of control | T/C [19]: 95 % of control

CCNC(C)(C)C(SS)c1ccc(C(F)(F)F)cc1 (configuration not stated)
T/C (dose: 12.5 mg/kg/injection, schedule: Q04DX003 (ip), vehicle: saline with Tween-80): 100 % of control | T/C (dose: 25.0 mg/kg/injection, schedule: Q04DX003 (ip), vehicle: saline with Tween-80): 110 % of control | T/C (dose: 50.0 mg/kg/injection, schedule: Q04DX003 (ip), vehicle: saline with Tween-80): 110 % of control | T/C [12]: 100 % of control | T/C [13]: 109 % of control

COc1cc(-c2ccc(O)cc2)c(OC)c(O)c1-c1ccc(O)cc1
T/C (dose: 0.15 mg/kg/injection, schedule: Q01DX009 (ip), vehicle: saline): 90 % of control | T/C (dose: 0.3 mg/kg/injection, schedule: Q01DX009 (ip), vehicle: saline): 90 % of control | T/C (dose: 0.6 mg/kg/injection, schedule: Q01DX009 (ip), vehicle: saline): 107 % of control | T/C (dose: 1.2 mg/kg/injection, schedule: Q01DX009 (ip), vehicle: saline): 89 % of control

O=S1(=O)CC2=C(C1)C1C=CC2C2C=CC12 (configuration not stated)
T/C (dose: 25.0 mg/kg/injection, schedule: Q04DX003 (ip), vehicle: saline): 98 % of control | T/C (dose: 50.0 mg/kg/injection, schedule: Q04DX003 (ip), vehicle: saline): 101 % of control | T/C (dose: 100.0 mg/kg/injection, schedule: Q04DX003 (ip), vehicle: saline): 107 % of control and 96 % of control

COC(=O)/C(=C/c1c[nH]c2ccccc12)NC=O
T/C [20]: 97 % of control | T/C [21]: 97 % of control | T/C [22]: 92 % of control

COc1ccc(S(=O)(=O)O)cc1N=N/C(=N/Nc1cc(S(=O)(=O)O)ccc1OC)C(=O)Nc1ccccc1
T/C [20]: 101 % of control | T/C [21]: 101 % of control | T/C [22]: 105 % of control

O=C(O)c1c(-c2ccccc2)sc2ccccc2c1=O
T/C [17]: 99 % of control | T/C [18]: 99 % of control | T/C [19]: 99 % of control

Brc1ccc(COC2C[C@]34CC=CC[C@@]3(C2)O4)cc1 (some centres not stated)
T/C [15]: 105 % of control | T/C [16]: 103 % of control | T/C (dose: 200.0 mg/kg/injection, schedule: Q01DX005 (ip), vehicle: Klucel (hydroxypropylcellulose) (HPC)): 105 % of control

O=S(=O)(O)C(O)C(F)(F)C(F)(F)C(F)(F)C(F)(F)C(O)S(=O)(=O)O (configuration not stated)
T/C [9]: 103 % of control | T/C [10]: 103 % of control | T/C [11]: 103 % of control
